From article PMC9084888, “FGFR2–BRD4 Axis Regulates Transcriptional Networks of Histone 3 Modification and Synergy Between Its Inhibitors and PD-1/PD-L1 in a TNBC Mouse Model” (Frontiers in Immunology, 2022)

How the values were obtained:
Assay type in all cases: cell-based, mouse
Fgfr2-S252W tumor cells = test: Alamar blue drug response assay of Fgfr2-S252W tumor cells
From the text: All animal experiments were approved by the University of Macau Animal Ethics Committee (under the protocol UMARE-015-2019). The generation of Fgfr2-S252W mice was described in a previous work ([19]). Transgenic mice were continually checked to accelerate the growth of mammary tumors. Tumor samples were cut using sharp blades into small pieces of about 0.1–0.3 cm in diameter and processed three ways, as follows: 1) two larger pieces were fixed in 10% formalin and processed for histology and immunohistochemistry (IHC) staining with antibodies; 2) three pieces were immediately frozen in liquid nitrogen and used for subsequent DNA, RNA, and protein isolation; and 3) all the remaining pieces were placed in a freezing medium [10% DMSO/25% serum/65% Dulbecco’s modified Eagle’s medium (DMEM)], slowly frozen to −80°C, and transferred into liquid nitrogen a few days later. […] Primary FGFR2 tumor cells were derived from the Fgfr2-S252W mouse model using a standard procedure and maintained in F-medium.
Figure 5 (A, B) RT-PCR analysis of the mRNA levels of Brd4 (A) and c-Myc (B) in tumors from the activation of Fgfr2-S252W transgenic mice. (C) Immunoblots with antibodies specific for the H3K9 acetylated lysine residues of histone H3 and pathway analysis of the activation of FGFR2 tumors or wild type (WT). […]

BRD4 = test: Western blot of BRD4 in treated Fgfr2-S252W tumor cells; conditions: Figure 5F
Experimental: (§1) Total proteins of tumors or cells were extracted using RIPA buffer with phosphatase and a protease inhibitor. Following a previously described protocol, immunoblotting was carried out using ChemiDocTM with corresponding antibodies. The antibodies used for IHC and Western blot are listed in Supplementary Table S2 .
(§2) (C) Immunoblots with antibodies specific for the H3K9 acetylated lysine residues of histone H3 and pathway analysis of the activation of FGFR2 tumors or wild type (WT). […] (E) Assessment of the drug response of BGJ398, JQ1, or the combined treatment of Fgfr2-S252W tumor cells with the Alamar blue assay. […] (G) Inflammation analysis using real-time RT-PCR from Fgfr2-S252W or WT mouse. P-values by using GraphPad Prism 7 Software. **p < 0.01, ***p < 0.001, ****p < 0.0001.

c-Myc = test: Western blot of c-Myc in treated Fgfr2-S252W tumor cells; conditions: Figure 5F
Experimental: as §1, §2

Row | SMILES | resistance of Fgfr2-S252W tumor cells (Fgfr2-S252W tumor cells) | drug response of Fgfr2-S252W cells (Fgfr2-S252W tumor cells; cell culture conditions, single agent, compared to response to FGFR inhibitor BGJ398) | inhibition of BRD4 (Western blot) (BRD4) | inhibition of c-Myc (Western blot) (c-Myc)
1 | Cc1sc2c(c1C)C(c1ccc(Cl)cc1)=N[C@@H](CC(=O)OC(C)(C)C)c1nnc(C)n1-2 [JQ1] | still showed resistance | not very sensitive | inhibit | inhibit
2 | CCN1CCN(c2ccc(Nc3cc(N(C)C(=O)Nc4c(Cl)c(OC)cc(OC)c4Cl)ncn3)cc2)CC1 [BGJ398] |  |  | inhibit | inhibit
